Assay [1] addresses Cap-dependant Endonuclease (CEN) (RNP fraction, PB1-PB2-PA complex) (Influenza A virus (strain A/Wilson-Smith/1933 H1N1) (Influenza A virus (strain A/WS/1933 H1N1)), UniProt P15659). The class given is biochemical, influenza A/WSN/33 virus.
Assay [2] deals with influenza virus. The experiment in a line: microbe, parasite or virus in culture. The class given is cell-based. Conditions: MDBK or MDCK cells, 3 days, WST-8. Background: Formazan colour is commonly taken as a measure of viable cells.
The mark [3] stands for this setting: unidentified influenza virus, 72 h, read-out: CPE EC50, parent compounds (Reference examples).
Where [4] appears, read: parent compounds (Reference examples), room temperature, 60 minutes.
The mark [5] stands for this setting: parent compounds (Reference examples), read-out: CPE EC50.

Like-named read-outs stand apart in the source and are kept apart here.

In general, IC50 refers to the concentration needed to halve the response being measured. For orientation: EC50 means the concentration that produces a half-maximal response.

Turning to `Cc1cccc2c1CSc1c(C)cccc1[C@H]2N1CN([C@H](C)C(F)(F)F)C(=O)c2c(O)c(=O)ccn21` [Reference example 613], in assay [1], the IC50 was determined as 0.173 µM. In addition, in assay [2] (setting [3]), the EC50 is 0.018 µM.
On to `Cc1cccc2c1[C@@H](N1CN([C@H](C)C(F)(F)F)C(=O)c3c(O)c(=O)ccn31)c1ccccc1SC2` [Reference example 662], for which the 50% inhibitory concentration (IC50) in assay [1] (setting [4]) was 0.316 µM. For the same compound, in assay [2] (setting [3]), the half-maximal effective concentration (EC50) was found to be 0.022 µM.
With `COCC[C@@H]1N([C@H](C)C(F)(F)F)C(=O)c2c(O)c(=O)ccn2N1C1c2ccccc2CCc2ccccc21` [Reference example 645], in assay [1] (setting [4]), the 50% inhibitory concentration (IC50) came to 0.105 µM. Also, the EC50 in assay [2] (setting [3]) was 0.016 µM.
As for `CCc1cccc2c1[C@H](N1CN([C@H](C)C(F)(F)F)C(=O)c3c(O)c(=O)ccn31)c1cccc(F)c1SC2` [compound 724], the IC50 in assay [1] (setting [4]) was 0.00507 µM. The EC50 in assay [2] (setting [3]) came to 0.00633 µM.
The corresponding values for `Cc1cn2c(c(O)c1=O)C(=O)N([C@H](C)C(F)(F)F)CN2[C@@H]1c2ccccc2SCc2c1ccc(F)c2F` [compound 704] are 0.0111 µM and 0.0035 µM.
For `C[C@@H](N1CN([C@@H]2c3ccccc3SCc3cccc(N(C)C)c32)n2ccc(=O)c(O)c2C1=O)C(F)(F)F` [compound 752], in that order: 0.0142 µM and 0.00312 µM.
In the case of `C[C@@H](N1CN([C@@H]2c3ccccc3CCc3c(F)cccc32)n2ccc(=O)c(O)c2C1=O)C(F)(F)F` [Reference example 634], the IC50 in assay [1] (setting [4]) came to 0.103 µM. Further, the EC50 in assay [2] (setting [3]) came to 0.017 µM.
`CC(C)N1C(=O)c2c(OCc3ccccc3)c(=O)ccn2N(C2c3ccccc3CCc3ccccc32)C1c1ccc(Cl)cc1` (centres unmarked) [Reference example 527] returned an IC50 in assay [1] of 0.127 µM. Moreover, in assay [2] (setting [5]), the EC50 was determined as 0.088 µM.
Consider `O=C1c2c(O)c(=O)ccn2N(C2c3ccccc3CSc3ccccc32)CN1Cc1ncns1` (centres unmarked) [Reference example 316], for which, in assay [1] (setting [4]), the half-maximal inhibitory concentration (IC50) is 0.069 µM. Also, the EC50 in assay [2] (setting [3]) was 0.083 µM.
In the case of `O=C1c2c(O)c(=O)ccn2N(C2c3ccccc3CSc3ccccc32)CN1C1COC1` (centres unmarked) [Reference example 609], the 50% inhibitory concentration (IC50) in assay [1] (setting [4]) turned out to be 0.053 µM. Further, the EC50 in assay [2] (setting [3]) was 0.025 µM.
For `C[C@@H](N1CN([C@H]2c3ccccc3CSc3ccccc32)n2cc(CO)c(=O)c(O)c2C1=O)C(F)(F)F` [compound 712], the IC50 in assay [1] (setting [4]) is 0.0164 µM. The concentration giving a half-maximal response (EC50) in assay [2] (setting [3]) was determined as 0.00645 µM.
The corresponding values for `C[C@@H](N1CN([C@@H]2c3ccccc3SCc3cccc(C(F)(F)F)c32)n2ccc(=O)c(O)c2C1=O)C(F)(F)F` [compound 741] are 0.021 µM and 0.00351 µM.
The corresponding values for `Cc1cccc2c1CCc1c(C)cccc1C2N1CN([C@H](C)C(F)(F)F)C(=O)c2c(O)c(=O)ccn21` [Reference example 632] are 0.132 µM and 0.038 µM.
For `Cc1cccc2c1SCc1cccc(Cl)c1[C@@H]2N1CN([C@H](C)C(F)(F)F)C(=O)c2c(O)c(=O)ccn21` [compound 768], in that order: 0.0153 µM and 0.00364 µM.
In the case of `C[C@@H](N1CN([C@H]2c3cc(F)ccc3CSc3c(Cl)cccc32)n2ccc(=O)c(O)c2C1=O)C(F)(F)F` [Reference example 658], in assay [1] (setting [4]), the half-inhibitory concentration (IC50) is 0.053 µM. In assay [2] (setting [3]), the EC50 was determined as 0.019 µM.
`C[C@@H](N1CN([C@@H]2c3ccccc3SCc3c2ccc(F)c3F)n2cc(B(O)O)c(=O)c(O)c2C1=O)C(F)(F)F` [compound 709]: the IC50 in assay [1] (setting [4]) is 0.0343 µM. In addition, the concentration giving a half-maximal response (EC50) in assay [2] (setting [3]) worked out at 0.00709 µM.
As for `Cc1cccc2c1[C@H](N1CN([C@H](C)C(F)(F)F)C(=O)c3c(O)c(=O)ccn31)c1ccccc1SC2` [Reference example 665], in assay [1] (setting [4]), the half-inhibitory concentration (IC50) was found to be 0.018 µM. The half-maximal effective concentration (EC50) in assay [2] (setting [3]) turned out to be 0.005 µM.
In the case of `Cc1cccc2c1CCc1ccccc1C2N1CN([C@H](C)C(F)(F)F)C(=O)c2c(O)c(=O)ccn21` (some centres unmarked) [Reference example 631], the IC50 in assay [1] (setting [4]) worked out at 0.075 µM. Besides, the EC50 in assay [2] (setting [3]) came to 0.041 µM.
For the compound `C[C@@H](N1CN([C@@H]2c3cccc(F)c3SCc3cccc(Br)c32)n2ccc(=O)c(O)c2C1=O)C(F)(F)F` [compound 771], the half-maximal inhibitory concentration (IC50) in assay [1] (setting [4]) stood at 0.00589 µM. For the same compound, the EC50 in assay [2] (setting [3]) is 0.00405 µM.
`C[C@@H](N1CN([C@@H]2c3ccc(Cl)cc3SCc3c(F)cccc32)n2ccc(=O)c(O)c2C1=O)C(F)(F)F` [Reference example 663]: the half-maximal inhibitory concentration (IC50) in assay [1] (setting [4]) came out at 0.031 µM. In assay [2] (setting [3]), the EC50 is 0.018 µM.
The corresponding values for `C[C@@H](N1CN([C@H]2c3ccc(F)cc3CSc3c(Cl)cccc32)n2ccc(=O)c(O)c2C1=O)C(F)(F)F` [Reference example 602] are 0.005 µM and 0.004 µM.
Turning to `C[C@@H]1Sc2ccccc2[C@@H](N2CN([C@H](C)C(F)(F)F)C(=O)c3c(O)c(=O)ccn32)c2c(Cl)cccc21` [compound 748], the IC50 in assay [1] (setting [4]) came to 0.0242 µM. The half-maximal effective concentration (EC50) in assay [2] (setting [3]) worked out at 0.00914 µM.
For `COCCN1CC(C(c2ccccc2)c2ccccc2)n2cc(C(=O)O)c(=O)c(O)c2C1=O` (centres unmarked) [Example 2], in assay [1] (setting [4]), the 50% inhibitory concentration (IC50) came to 0.048 µM. In assay [2] (setting [3]), the concentration for a half-maximal effect (EC50) was 0.293 µM.
With `C[C@@H](N1CN([C@H]2c3ccc(F)cc3CSc3c(Br)cccc32)n2ccc(=O)c(O)c2C1=O)C(F)(F)F` [Reference example 619], the half-inhibitory concentration (IC50) in assay [1] (setting [4]) stood at 0.005 µM. For the same compound, the EC50 in assay [2] (setting [3]) was found to be 0.006 µM.
Turning to `COc1cccc2c1CSc1ccccc1[C@H]2N1CN([C@H](C)C(F)(F)F)C(=O)c2c(O)c(=O)ccn21` [Reference example 600], the IC50 in assay [1] (setting [4]) worked out at 0.059 µM. For the same compound, the EC50 in assay [2] (setting [3]) was determined as 0.036 µM.
As for `C[C@@H](N1CN(C(c2ccccc2)c2ccc(Cl)cc2)n2ccc(=O)c(O)c2C1=O)C(F)(F)F` (some centres unmarked) [Reference example 650], in assay [1] (setting [4]), the IC50 amounted to 0.219 µM. The half-maximal effective concentration (EC50) in assay [2] (setting [3]) came out at 0.103 µM.
The compound `C[C@@H](N1CN([C@@H]2c3ccccc3SCc3cccc(Cl)c32)n2cc(CO)c(=O)c(O)c2C1=O)C(F)(F)F` [compound 666] had an IC50 in assay [1] of 0.00336 µM. Besides, in assay [2] (setting [5]), the EC50 amounted to 0.00391 µM.
As to `CCN(CC)CCN1CN(C2c3ccccc3CCc3ccccc32)n2ccc(=O)c(O)c2C1=O` [Reference example 490], the half-maximal inhibitory concentration (IC50) in assay [1] (setting [4]) came out at 0.212 µM. For the same compound, the EC50 in assay [2] (setting [3]) is 0.468 µM.
The compound `C[C@@H](N1CN([C@@H]2c3cccc(F)c3CSc3c(Cl)cccc32)n2ccc(=O)c(O)c2C1=O)C(F)(F)F` [Reference example 597] had an IC50 in assay [1] of 0.339 µM. In addition, the 50% effective concentration (EC50) in assay [2] (setting [3]) came out at 0.049 µM.
In assay [1], `C[C@@H](N1CN([C@@H]2c3ccccc3SCc3c(Cl)cccc32)n2ccc(=O)c(OCOC(=O)NCCN)c2C1=O)C(F)(F)F` [Example 178] came in with a half-inhibitory concentration (IC50) of 0.061 µM. The concentration for a half-maximal effect (EC50) in assay [2] (setting [5]) was 0.075 µM.
In the case of `C[C@@H](N1CN([C@@H]2c3ccccc3SCc3c(Cl)cccc32)n2cc(CO)c(=O)c(O)c2C1=O)C(F)(F)F` [compound 719], the IC50 in assay [1] (setting [4]) was 0.0026 µM. Further, the 50% effective concentration (EC50) in assay [2] (setting [3]) came to 0.00836 µM.
For `Cc1cccc2c1SCc1c(F)cccc1[C@@H]2N1CN([C@H](C)C(F)(F)F)C(=O)c2c(O)c(=O)ccn21` [Reference example 623], the IC50 in assay [1] (setting [4]) worked out at 0.021 µM. In assay [2] (setting [3]), the concentration giving a half-maximal response (EC50) was 0.003 µM.
For `C[C@@H](N1CN(C(c2ccc(F)cc2)c2ccc(F)cc2)n2ccc(=O)c(O)c2C1=O)C(F)(F)F` [Reference example 649], in that order: 0.182 µM and 0.051 µM.
As to `C[C@@H](N1CN([C@@H]2c3ccc(F)cc3SCc3cccc(F)c32)n2ccc(=O)c(O)c2C1=O)C(F)(F)F` [Reference example 598], in assay [1] (setting [4]), the IC50 was 0.016 µM. The EC50 in assay [2] (setting [3]) came to 0.005 µM.

For the origin of these results see patent publication US10202379B2, “Substituted polycyclic carbamoyl pyridone derivative prodrug” (priority 2010, dated 2019).
